Results published in patent publication US20250340941A1, “ASSAY AND METHODS FOR DRUG DISCOVERY” (BIOVIE INC., priority 2023, published 2025).

How the values were obtained:
[1] = Phase 3 trial: FDG-PET imaging; format: in vivo, human; conditions: Phase 3, blinded analysis; subjects with a baseline whole cortex suvr <1.29, n/N
Description: Subjects were analyzed using a fluorodeoxyglucose (FDG)-positron emission tomography (PET) imaging scans. FDG-PET standardized uptake value ratios (“suvr”) were increased in 14/24 subjects with a baseline whole cortex suvr <1.29. […] Cholesterol increases trended with increased Cingulate suvr. The results are described in Table 7 and FIG. 5.

[2] = Phase 3 trial: neuropsychiatric inventory; format: in vivo, human; conditions: Phase 3, blinded analysis (NE3107 and placebo not separated)
Description: Subjects were analyzed for neuropsychiatric inventory. […] An improvement in appetite was also correlated with decreased Cog12, CDR SB and ADCOMS, with increased Alzheimer's disease. A decrease in anxiety was correlated with an increase ADL and decreased CGIC. Sleep improvement was correlated with a decrease in CGIC and decreased in TNFa. The results are described in Table 8 and FIGS. 6A-6B.

Monocytes = experiment: Blood monocyte frequency, 3-month open-label phase 2 study; format: in vivo, human
Description: (§1) Result: The subject's SkinBloodAge clock closely matched their chronological age at baseline (mean 71.5 vs 70.8 years). After 3 months of NE3107 (20 mg BID), the SkinBloodAge decreased by a mean of 3.3 years (Table). […] Leptin is reportedly lower in AD, and DNAmLeptin is reported to be positively correlated with metabolic parameters waist/hip ratio, BMI, CRP, insulin, glucose and triglycerides (Lu 2022 Aging 14:9884). […] DNAmPack Years is reported to be negatively correlated with time to mortality in both smokers and nonsmokers, and positively correlated with waist/hip ratio, CRP and triglycerides. Monocyte DNAm was correlated with monocyte frequency at baseline, and although it is reported to increases with chronological age, it decreased (−29%) in 77% of subjects after 3 months treatment. […]

[3] = tested on: Horvath Clock DNA methylation (DNAm); experiment: Horvath Clock DNA methylation (DNAm) epigenetic analysis of whole blood, 3-month open-label phase 2 study (NCT05007820); format: in vivo, human
Excerpt: NE3107 is an oral small molecule, blood-brain permeable anti-inflammatory insulin sensitizer that binds ERK, inhibits NFKB and TNF signaling, and is in clinical studies for Probable AD (NCT04669028) and Parkinson's disease (NCT05083260). Safety, clinical, biomarker and neuroimaging results from a 3-month open-label phase 2 study of NE3107 treatment of MCI and probable AD (NCT05007820) were reported at CTAD (2022 J. Prev. Alzheimers Dis 9 S86, S140 and S27). In this example, the inventors determined the results of epigenetic clock studies from NCT05007820.
Methods: Subjects with clinical dementia rating (CDR) 0.5-1 were consented, and whole blood was drawn, frozen and shipped for Horvath Clock DNA methylation (DNAm) epigenetic analysis (Horvath 2018 Aging 10:1758) at baseline and 3 months.
as §1

[4] = Phase 3 trial: adverse events; format: in vivo, human; conditions: blinded (IP or placebo not known)
Excerpt: Of the 439 subjects enrolled in the study, 156 experienced 1 or more AEs (35.5%). There were only 43 (9.8%) related AEs with the majority 42 […] categorized as non-serious AEs by the principal investigator. The study also had very low rate of serious AEs reported. There were 12 (2.7%) reported for the duration of the study. […] As this is a blinded analysis it is not known if the subjects was on IP or placebo.

[5] = Phase 3 trial (NM101, NCT04669028): metabolic changes, blinded assessment; format: in vivo, human
Excerpt: In this example, the clinical outcomes from a Phase 3, randomized, placebo-controlled trial of NE3107 (17α-ethynylandrost-5-ene-3ϕ3,7ϕ3,17ϕ3-triol) in subjects with mild to moderate probable Alzheimer's disease.
Recently, the roles of inflammation and insulin resistance in neurodegeneration have become better appreciated. […] We describe the rationale and design of NM101, the first randomized, multicenter Phase III clinical study to examine the safety and efficacy of 30-week treatment with NE3107 versus placebo in elderly adults with mild-to-moderate Alzheimer's disease. Patients (316) will be randomized in a 1:1 ratio. The co-primary end points measure cognitive function and functional and behavioral characteristics (Clinical Dementia Rating Scale Sum of Boxes, CDR-SB) and cognitive function (ADAS Cog12). Trial registration number: NCT04669028 (Clinicaltrials.gov).
Subjects metabolic and correlation changes were analyzed. Many of the genes associated with LOAD (late onset Alzheimer's disease) are related to cholesterol metabolism, which is decreased in AD neuron membranes. Insulin and glycemic controls are known to be involved in neurodegeneration. […] Increased mean amplitude of glycemic excursion (MAGE from CGM) increased risk of Alzheimer's disease progression. Leptin is an anti-inflammatory, neuroprotective and is decreased in AD. […] The results are described in Tables 4 and 5.

[6] = Phase 3 trial: imaging sub-study vMRI; format: in vivo, human; conditions: Phase 3 imaging sub-study, 23 subjects, blinded analysis; result in words
Description: Subjects were analyzed using imaging sub-studies vMRI on 23 subjects. It was observed that the volume was increased in the hippocampus and amygdala. In addition, it was observed that a decreased CGIC was correlated with decreased hippocampi volume and increased MCP-1 was correlated with increased whole cortex. The results are described in FIGS. 4A-4B and Table 6.

[7] = tested on: TNFR1 phosphorylation in THP-1 human monocytes; experiment: TNFa-stimulated TNFR1 ERK-dependent phosphorylation, Western blot densitometry; format: cell-based; conditions: THP-1, TNFa 50 ng/mL
Description: THP-1 monocytes were treated with 100 nM NE3107, 1 uM IKK-16 (IKK inhibitor), 1 uM Tpl2 Kinase inhibitor (TPL2i) or Vehicle (0.1% DMSO) and stimulated with TNFa 50 ng/mL. Cell lysates were collected at 0, 2, 5, 10, 15, and 30 minutes. The results are given as fold change with respect to the control following Western blotting and quantification of band intensities by densitometry scanning.
THP-1 human monocytes were grown in complete growth medium (ATCC-formulated RPMI-1640 Medium, Catalog No. 30-2001), 2-mercaptoethanol to a final concentration of 0.05 mM and fetal bovine serum to final concentration of 10%. THP-1 human monocytes were then seeded into 10 mL complete growth medium at 0.4×10^6/mL in a T25 flask and were grown to 0.8×10^6/mL in about 1 to 2 days. The cells were then starved in 0.5% FBS RPMI for 16 h. The THP-1 monocytes were then treated with 100 nM 17α-ethynylandrost-5-ene-3ϕ3,7ϕ3,17ϕ3-triol (NE3107), 1 μM IKK-16 (IKK inhibitor), 1 μM Tpl2 Kinase inhibitor (TPL2i) or 0.1% DMSO (vehicle). Cells were stimulated with stimulated with 50 ng/mL TNFa and cell lysates were collected at 0, 2, 5, 10, 15, and 30 minutes after TNFa stimulation. Total cell lysates were subjected to Western blotting as described in Lu et al., Mol. Endocrinol. 22 (2008), 760-771. Relative band intensities were quantified by densitometry scanning. The results are given as fold change with respect to untreated cells in Table 2.

[8] = After 3 months of NE3107 (20 mg BID), result in words
[9] = NE3107 20 mg BID, 3 months vs baseline
[10] = NE3107 20 mg BID, 3 months vs baseline, mean
[11] = NE3107 20 mg BID, 3 months, mean
[12] = After 3 months of NE3107 (20 mg BID), size of decrease
[13] = Blood Cell Frequency, 3 months vs baseline, mean
[14] = Blood Cell Frequency, NE3107 20 mg BID, 3 months, mean
[15] = NE3107 20 mg BID, 3 months, n/N subjects
[16] = Phase 3, blinded analysis (NE3107 and placebo not separated)
[17] = Phase 3, blinded analysis, result in words

For `C#C[C@]1(O)CC[C@H]2[C@@H]3[C@@H](O)C=C4C[C@@H](O)CC[C@]4(C)[C@H]3CC[C@@]21C` [NE3107, 17α-ethynylandrost-5-ene-3ϕ3,7ϕ3,17ϕ3-triol], the “subjects with increased FDG-PET standardized uptake value ratios (suvr)” value [1] was 14/24, the “neuropsychiatric inventory: overall improvement in appetite” value [2] was −1.0 and the “neuropsychiatric inventory: overall improvement in sleep” value [2] was −1.0. For the same molecule, the “change in monocyte frequency” value (Monocytes; [8]) was “no significant change”, the “Monocytes, Change (%)” value (Monocytes; [9]) was “(1.5%)” and the “Monocytes, Change” value (Monocytes; [10]) was −0.001 Freq. For the same molecule, the “Monocytes, 3 Months” value (Monocytes; [11]) was 0.085 Freq, the “DNAmCD4Tcell, Change (%)” value ([3]; 3 months vs baseline) was “(18%)” and the “DNAmCD8Tcell, Change (%)” value ([3]; 3 months vs baseline) was “(12%)”. The “DNAmGranulocyte, Change (%)” value ([3]; 3 months vs baseline) was “(2.2%)”, the “DNAmNKcell, Change (%)” value ([3]; 3 months vs baseline) was “(0.5%)” and the “changes in DNAmT, DNAmNK or DNAmGran” value [3, 8] was “no significant changes”. For the same molecule, the “DNAmPackYears decreased by” value [3, 12] was 39%, the “SkinBloodAge decreased by a mean of” value [3, 12] was 3.3 years and the “DNAmCD4Tcell, Change” value [3, 13] was −0.033. For the same molecule, the “DNAmCD8Tcell, Change” value [3, 13] was −0.002, the “DNAmGranulocyte, Change” value [3, 13] was −0.015 and the “DNAmNKcell, Change” value [3, 13] was −0.0003. The “DNAmCD4Tcell, 3 Months” value [3, 14] was 0.152, the “DNAmCD8Tcell, 3 Months” value [3, 14] was 0.013 and the “DNAmGranulocyte, 3 Months” value [3, 14] was 0.653. For the same molecule, the “DNAmNKcell, 3 Months” value [3, 14] was 0.063, the “DNAmPackYears, Change (%)” value [3, 9] was “(39%)” and the “DNAmSkinBlood, Change (%)” value [3, 9] was “(−4.6%)”. The “DNAmMonocytes, Change” value [3, 10] was −0.022 Freq, the “DNAmPackYears, Change” value [3, 10] was −9.4 and the “DNAmSkinBlood, Change” value [3, 10] was −3.3 years. For the same molecule, the “DNAmSkinBlood, 3 Months” value ([3]; NE3107 20 mg BID, 3 months, MCI/probable AD subjects (CDR 0.5-1), whole blood, mean) was 67.5 years, the “DNAmMonocytes, 3 Months” value [3, 11] was 0.054 Freq and the “DNAmPackYears, 3 Months” value [3, 11] was 14.6. The “DNAmLeptin, Frequency (subjects with decrease)” value [3, 15] was 22/22, the “DNAmMonocytes, Frequency (subjects with decrease)” value [3, 15] was 17/22 and the “DNAmPackYears, Frequency (subjects with decrease)” value [3, 15] was 21/22. The “DNAmSkinBlood, Frequency (subjects with decrease)” value [3, 15] was 19/22, the “related AEs” value ([4]; Phase 3, 439 subjects enrolled) was 9.8% and the “related AEs categorized as non-serious” value ([4]; Phase 3, 439 subjects enrolled) was 0.6%. The “serious AEs reported” value ([4]; Phase 3, 439 subjects enrolled) was 2.7%, the “subjects discontinued due to a reported AE” value ([4]; Phase 3, 439 subjects enrolled) was 1.8% and the “subjects who experienced 1 or more AEs” value ([4]; Phase 3, 439 subjects enrolled) was 35.5%. For the same molecule, the “serious AEs that resulted in death” value ([4]; Phase 3, count) was 1, the “HOMA2-% B, Change from Baseline” value [5, 16] was “+13.5%, *” and the “HOMA2-% S, Change from Baseline” value [5, 16] was −21.2%, *. For the same molecule, the “Insulin, Change from Baseline” value [5, 16] was “+1.9 μIU/mL”, the “Leptin, V10 median” value [5, 16] was 29.2 ng/mL and the “MAGE, Change from Baseline” value ([5]; Phase 3, blinded analysis (NE3107 and placebo not separated), from CGM) was -0.57 mg/dL. For the same molecule, the “Leptin DNAm” value [5, 17] was “observed to increase”, the cases of hypoglycemia [5, 17] was “no cases of hypoglycemia” and the “Cholesterol, Change from Baseline” value ([5]; Phase 3, mild to moderate probable AD, blinded analysis (NE3107 and placebo subjects not separated)) was “+3.0 mg/dL”. For the same molecule, the “vMRI volume in the hippocampus and amygdala” value [6] was “increased”, the “Fold vs DMSO control P-TNFR1/Actin in Gel2” value ([7]; 100 nM, 0 min) was 0.32 fold and the “Fold vs DMSO control P-TNFR1/TNFR1 in Gel2” value ([7]; 100 nM, 0 min) was 0.27 fold. The “Fold vs DMSO control P-TNFR1/Actin in Gel2” value ([7]; 100 nM, 15 min) was 0.79 fold, the “Fold vs DMSO control P-TNFR1/TNFR1 in Gel2” value ([7]; 100 nM, 15 min) was 0.57 fold and the “Fold vs DMSO control P-TNFR1/Actin in Gel2” value ([7]; 100 nM, 30 min) was 0.23 fold. The “Fold vs DMSO control P-TNFR1/TNFR1 in Gel2” value ([7]; 100 nM, 30 min) was 0.17 fold.

With `O=C(c1ccc(Nc2nccc(-c3cc4ccccc4s3)n2)cc1)N1CCC(N2CCCC2)CC1` [IKKi, IKK-16, reference compound] the “Fold vs DMSO control P-TNFR1/Actin in Gel2” value ([7]; 1 μM, 0 min) was 2.09 fold, the “Fold vs DMSO control P-TNFR1/TNFR1 in Gel2” value ([7]; 1 μM, 0 min) was 2.92 fold and the “Fold vs DMSO control P-TNFR1/Actin in Gel2” value ([7]; 1 μM, 15 min) was 0.92 fold. The “Fold vs DMSO control P-TNFR1/TNFR1 in Gel2” value ([7]; 1 μM, 15 min) was 0.59 fold, the “Fold vs DMSO control P-TNFR1/Actin in Gel2” value ([7]; 1 μM, 30 min) was 0.49 fold and the “Fold vs DMSO control P-TNFR1/TNFR1 in Gel2” value ([7]; 1 μM, 30 min) was 0.30 fold.
